According to US9661855B2, “Cyclic aza-sila compounds as insect repellants” (COUNCIL OF SCIENTIFIC & INDUSTRIAL RESEARCH, priority 2012, dated 2017):

Test system: Aedesaegypti (L.)
Test: not given
Settings: against Aedesaegypti (L.); topical, human volunteers; cited from earlier work

Structure (SMILES)	biting-deterrent activities compared with DEET
CCN(CC)C(=O)c1cccc(C(F)(F)F)c1 [N,N,diethyl[3-(trifluoromethyl)]benzamide]	superior to DEET
CCN(CC)C(=O)Cc1cccc(Br)c1 [N,N-diethyl(3-bromophenyl) acetamide]	superior to DEET
CCN(CC)C(=O)Cc1cccc(C(F)(F)F)c1 [N,N-diethyl[(alpha,alpha,alpha-trifluoro-m-tolyl)]acetamide]	superior to DEET

Test system: not given
Test: not given
Settings: not given

Structure (SMILES)	melting point
Cc1cccc(C(=O)N2CC[Si](C)(C)CC2)c1	65 to 68 °C
C[Si]1(C)CCN(C(=O)c2ccccc2)CC1	65 to 67 °C
C[Si]1(C)CCN(C(=O)c2cc(Cl)ccc2Cl)CC1	79 to 81 °C
C[Si]1(C)CCN(C(=O)c2ccccn2)CC1	101 to 103 °C

Test system: insect bites
Test: not given
Settings: 100% DEET; cited from earlier work

Structure (SMILES)	hours of protection
CCN(CC)C(=O)c1cccc(C)c1 [DEET, N,N-Diethyl-meta-toluamide]	up to 12 hours

Same assay, conditions: lower concentrations of 20%-40% DEET; cited from earlier work

Structure (SMILES)	hours of protection
CCN(CC)C(=O)c1cccc(C)c1 [DEET, N,N-Diethyl-meta-toluamide]	3 to 8 h

Test system: Anopheles stephensi Liston
Test: not given
Settings: against Anopheles stephensi Liston; topical, human volunteers; cited from earlier work

Structure (SMILES)	biting-deterrent activities compared with DEET
CCN(CC)C(=O)c1cccc(C(F)(F)F)c1 [N,N,diethyl[3-(trifluoromethyl)]benzamide]	superior to DEET
CCN(CC)C(=O)Cc1cccc(Br)c1 [N,N-diethyl(3-bromophenyl) acetamide]	superior to DEET
CCN(CC)C(=O)Cc1cccc(C(F)(F)F)c1 [N,N-diethyl[(alpha,alpha,alpha-trifluoro-m-tolyl)]acetamide]	superior to DEET

Test system: Ae. aegypti females mosquitoes
Test: Mosquito repellence test, protection period (time until the first bite), treated muslin screen over human volunteer's hand
Assay type: in vivo
Settings: 0.25 mg/cm^2 on muslin cloth screen, 27±1° C.
Method: Mosquito repellence activity was assessed on the basis of protection period (hr) offered by various analogues of DEET against Mosquito bites. The protection period was measured on the basis of the concept” time until the first bite” pioneered by Granette (Comparison of mosquito repellence test under laboratory and field conditions. Granett, P. Proc Ann Meet NJ Mosq Assoc, 1938, vol. 25, 51). Repellence tests were carried out against 3-5 days old, blood starved but sucrose fed (0.5M solution), Ae. aegypti females mosquitoes, drawn from well-established laboratory colony maintained at 27±1° C. Temperature and 70±5% Relative humidity. The light intensity was regulated at 300-500 lux for testing against laboratory, colonized Ae. aegypti, a day biting mosquito. Human volunteer's hand covered with polythene disposable gloves was introduced in the cage containing about 200 hungry mosquitoes. Mosquitoes were allowed to bite on the back of the hand through muslin screen stuck over a small window (2 cm×2 cm) cut out in the polythene bag. Various analogues of DEET were loaded on the muslin cloth screen instead of direct skin application so as to avoid the potential risk involved in the evaluation of natural products of unknown mammalian toxicity. All the test solutions were made in Analar grade Acetone The muslin cloth screen was first treated with the analogue taking two doses @0.25 mg/cm2 and 0.5 mg/cm2 and the solvent was evaporated before use. Control muslin screen was treated with solvent alone. After introduction of the hand covered with the polythene glove with the treated muslin screen into the mosquito cage, number of mosquito bites received in subsequent 5 minutes was counted. In the event of no bites in the initial 5 minutes exposure, the test hand was exposed repeatedly after every consecutive ½ hr for 5 minutes test till the time a confirmed bite was received. Number of hours before the receipt of a confirmed bite (Techniques for the evaluation of insect repellents. A critical review (Schreck, C. E, Ann Rev Entomol, 1977, vol 22, 101) represented the protection period offered by the test compound. In control rate of mosquito bite was 10-12 bites/min. All the tests were carried out at 27±1° C. temperature between 9.00-17.00 hrs.

Structure (SMILES)	Protection period in hrs @ 0.25 mg/cm^2
C[Si]1(C)CCN(C(=O)c2cnccn2)CC1	2.14 ± 0.76 h
CCCCCCCCCCC(=O)N1CC[Si](C)(C)CC1	2.14 ± 0.065 h
Cc1ccccc1C(=O)N1CC[Si](C)(C)CC1	4.09 ± 0.053 h
Cc1ccc(C(=O)N2CC[Si](C)(C)CC2)cc1	3.08 ± 0.056 h
Cc1cccc(C(=O)N2CC[Si](C)(C)CC2)c1 [drawing 33]	1.47 ± 0.13 h

Same assay, conditions: 0.50 mg/cm^2 on muslin cloth screen, 27±1° C.

Structure (SMILES)	Protection period in hrs @ 0.50 mg/cm^2
C[Si]1(C)CCN(C(=O)c2cnccn2)CC1	4.22 ± 0.69 h
CCCCCCCCCCC(=O)N1CC[Si](C)(C)CC1	5.05 ± 0.207 h
Cc1ccccc1C(=O)N1CC[Si](C)(C)CC1	5.41 ± 0.135 h
Cc1ccc(C(=O)N2CC[Si](C)(C)CC2)cc1	4.16 ± 0.067 h
Cc1cccc(C(=O)N2CC[Si](C)(C)CC2)c1 [drawing 33]	2.15 ± 0.072 h
